Test results from patent US20070270462A1, “8-hydroxyquinoline compounds for treating a polyglutamine (polyQ)-expansion disease” (priority 2005, published 2007).

Key:
[1] = tested on: R6/2 mice; assay: Lifespan (survival) of R6/2 mice; assay type: in vivo, mouse; settings: oral CQ 30 mg/kg/day
Procedure: A colony of transgenic mice strain R6/2 that is heterozygous for htt exon1 (containing 145 CAG repeats) was maintained, with founders originating and available from The Jackson Laboratory (Bar Harbor, Me., USA). Male transgenic R6/2 mice were bred with background strain (B6CBAFI/J) females. Genotyping was done according to Hockly et al, Brain Res Bull 61, 469-479, 2003. CQ in water was orally administered to mice at 30 mg/kg/day starting at 3 weeks of age and continued until the mice were deceased or sacrificed for tissues. Littermate R6/2 mice were gavaged with water vehicle alone. At the end of CQ treatment mice were anesthetized and transcardially perfused with PBS followed by 4% v/v paraformaldehyde. Blood glucose levels were determined after at least 8 hrs of fasting in 11-week old mice (n=6 for wild-type, n=4 for vehicle-treated R6/2, n=6 for CQ-treated R6/2 littermates) using a 2300 STAT Plus glucose analyzer (YSI, Yellowsonte, Ohio, USA). Fasting blood insulin levels in animals fasted for 8 hrs were measured using an Ultra Sensitive Rat Insulin ELISA Kit (Crystal Chem, Inc., Downers Grove, Ill., USA) according to manufacturer's instructions. […]

[2] = tested on: R6/2 mice; assay: Foot clasping test in R6/2 mice; assay type: in vivo, mouse; settings: R6/2 mice at 10 weeks
Procedure: A colony of transgenic mice strain R6/2 that is heterozygous for htt exon1 (containing 145 CAG repeats) was maintained, with founders originating and available from The Jackson Laboratory (Bar Harbor, Me., USA). Male transgenic R6/2 mice were bred with background strain (B6CBAFI/J) females. Genotyping was done according to Hockly et al, Brain Res Bull 61, 469-479, 2003. CQ in water was orally administered to mice at 30 mg/kg/day starting at 3 weeks of age and continued until the mice were deceased or sacrificed for tissues. Littermate R6/2 mice were gavaged with water vehicle alone. […] Blood glucose levels were determined after at least 8 hrs of fasting in 11-week old mice (n=6 for wild-type, n=4 for vehicle-treated R6/2, n=6 for CQ-treated R6/2 littermates) using a 2300 STAT Plus glucose analyzer (YSI, Yellowsonte, Ohio, USA). Fasting blood insulin levels in animals fasted for 8 hrs were measured using an Ultra Sensitive Rat Insulin ELISA Kit (Crystal Chem, Inc., Downers Grove, Ill., USA) according to manufacturer's instructions.
Rotarod performance (n≧6 for each treatment group) was assessed as described by Hockly et al., 2003 Supra with the modification that the SDI Rota-Rod (San Diego Instruments, San Diego, Calif.) was set to linearly increase in speed to 40 rpm in 4 min ramp time. […]

[3] = tested on: Alzheimer's disease; settings: phase II clinical trial; cited from earlier work
[4] = tested on: Htt exon1-Q103-egfp; assay: Western blotting of cell extracts, Htt exon1-Q103-egfp expression; assay type: cell-based
Description: PolyQ-htt-GFP fusion constructs, in which the polyglutamine region is encoded by CAA and CAG-containing tandem repeats ([…]) [SEQ ID NO: 1], human polyglutaminen, were obtained from the Hereditary Disease Foundation, Santa Monica, Calif., USA. PC12 and HEK293 cells were maintained in MEM supplemented with 10% v/v FBS, switched to Opti-MEM without serum for 6 hrs during transfection using Lipofectamine 2000 (Invitrogen, Carlsbad, Calif., USA), and returned to serum-containing medium thereafter (up to 48 hours). […] Control cultures received equivalent amounts of DMSO-containing vehicle (<0.1% w/v DMSO, final concentration).
HEK293 or PC12 cells were lysed in PBS buffer containing 1% v/v Triton X-100 and protease inhibitor cocktail (Roche, Indianapolis, Ind.), and passed through a 28 gauge needle to ensure the release of Htt inclusions from the nuclei. Whole mouse brains were homogenized in 50 mM Tris-HCl (pH 7.4), 150 mM NaCl, 1% v/v Triton X-100 and complete protease inhibitor cocktail. Brain homogenate was pre-cleared by centrifuging at 7,500 g for 90 s at 4° C. The supernatant was passed through a 28-gauge needle and boiled in SDS sample buffer for 10 min. Fifty μg of total protein was loaded onto 10% w/v SDS gel containing a 4% w/v stacking gel. […]

For `Oc1c(I)cc(Cl)c2cccnc12` [CQ, 5-chloro-7-iodo-8-hydroxy-quinoline], which average lifespan [1] is on record?
Its average lifespan is 92 days.

And the “increase in longevity over the littermate control group” value [1]?
The value was 20%.

What about the average clasping score ([2]; score of 3 maximum, oral CQ 30 mg/kg/day) of the same compound?
Its average clasping score is 1.3.

And the “reduction of average clasping score” value ([2]; versus vehicle (2.5))?
The value was 48%.

And the CQ toxicity [3]?
Its CQ toxicity is “no significant CQ toxicity”.

What about the “effects on Alzheimer's disease” value [3] of the same compound?
The value was “early positive effects”.

And the “CQ concentration at which dose-dependent inhibition of Htt exon1-Q103-egfp expression begins” value [4]?
Its value is 0.5 µM.

And the “inhibition of Htt exon1-Q103-egfp expression” value ([4]; 2 μM CQ)?
Its value is 3.2 fold.
